In test [1] the target is Cannabinoid receptor 1 (Homo sapiens, UniProt P21554). Description: Displacement of [3H]-SR141716A from human CB1 receptor expressed in CHO cells after 1 hr. Type of test: cell-based. For orientation: Loss of bound radioactivity is the signal in a displacement assay; it reports binding, not function.
Test [2] deals with T1, Cannabinoid receptor 2 (Homo sapiens, UniProt P34972). Description: Displacement of [3H]-CP55940 from human CB2 receptor expressed in CHO cells after 1 hr. Type of test: cell-based.
In test [3] the target is T1, Cannabinoid receptor 2. As to the kind of experiment: Agonist activity at human CB2 receptor expressed in CHO cells assessed as stimulation of [35S]-GTPgammaS binding relative to basal activity. Type of test: functional, cell-based.
The target in test [4] is T1, Cannabinoid receptor 2. Description: Agonist activity at human CB2 receptor expressed in CHO cells assessed as stimulation of [35S]-GTPgammaS binding. Type of test: functional, cell-based. Background: GTPγS resists hydrolysis and so accumulates on activated G proteins.

pEC50, pKi: −log10 of the molar value.

Chain of Cannabinoid receptor 1 (P21554 whole entry): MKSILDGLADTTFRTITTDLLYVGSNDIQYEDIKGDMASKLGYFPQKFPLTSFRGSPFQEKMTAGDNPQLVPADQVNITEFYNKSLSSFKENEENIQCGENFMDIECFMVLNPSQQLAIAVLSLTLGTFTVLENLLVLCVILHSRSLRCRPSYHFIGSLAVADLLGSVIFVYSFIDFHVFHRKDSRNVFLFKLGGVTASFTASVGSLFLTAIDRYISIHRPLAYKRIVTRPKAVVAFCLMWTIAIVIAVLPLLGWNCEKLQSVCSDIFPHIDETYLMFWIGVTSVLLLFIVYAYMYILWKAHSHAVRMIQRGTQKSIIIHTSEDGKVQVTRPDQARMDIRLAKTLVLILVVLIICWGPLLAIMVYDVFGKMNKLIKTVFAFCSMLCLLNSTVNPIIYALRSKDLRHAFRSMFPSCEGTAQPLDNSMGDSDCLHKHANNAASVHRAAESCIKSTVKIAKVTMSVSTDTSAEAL
T1 sequence (P34972 whole entry): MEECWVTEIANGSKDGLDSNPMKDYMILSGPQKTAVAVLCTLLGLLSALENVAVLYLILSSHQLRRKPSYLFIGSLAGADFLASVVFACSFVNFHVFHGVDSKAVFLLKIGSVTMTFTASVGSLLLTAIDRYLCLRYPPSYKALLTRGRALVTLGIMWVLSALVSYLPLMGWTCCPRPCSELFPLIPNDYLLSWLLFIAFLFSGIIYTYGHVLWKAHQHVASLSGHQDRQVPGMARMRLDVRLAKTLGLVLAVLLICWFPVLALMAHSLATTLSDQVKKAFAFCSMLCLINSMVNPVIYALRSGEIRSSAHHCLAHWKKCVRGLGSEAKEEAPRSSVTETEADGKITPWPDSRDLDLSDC

A word on the pKi: it is the negative decadic logarithm of the Ki, by convention in mol/L. Low readings indicate a high Ki, high ones a low Ki. `CCCCCn1cc(C(=O)NC23CC4CC(CC(C4)C2)C3)c(=O)cc1-c1ccccc1Cl`: the pKi is 7.46 in test [1] and 9.15 in test [2].
In turn, `CCCCCCn1cc(C(=O)NC23CC4CC(CC(C4)C2)C3)c(=O)cc1-c1ccccc1` had a negative-log Ki (pKi) in test [1] of 6.22.
In general, Emax refers to the maximal effect, on the per cent scale that the assay sets. In test [1], `CCCCCn1cc(C(=O)NC2CCCCC2)c(=O)cc1-c1ccc(Cl)cc1` had a pKi of less than 6.00. In addition, in test [3], the Emax worked out at 39%.
As a reminder, the pEC50 is the negative decadic logarithm of the EC50, by convention in mol/L. For `CCCCCn1cc(C(=O)NC2CCCCC2)c(=S)cc1-c1ccccc1`, the pKi was less than 6.00 in test [1] and 7.32 in test [2]. The pEC50 in test [4] was 7.57. Also, the Emax in test [3] amounted to 45%.
The compound `CCCCCn1cc(C(=O)NC2CCCCC2)c(=O)cc1-c1ccccc1` gave a negative logarithm of the Ki (pKi) in test [1] of 6.03. In addition, in test [3], the Emax turned out to be 62%.
For the compound `CCCCCn1cc(C(=O)NC23CC4CC(CC(C4)C2)C3)c(=O)cc1-c1ccc(C)cc1`, the pKi in test [1] was 6.87; in test [2] it was 7.88.
With `CCCCCn1cc(C(=O)N[C@@H]2CCCc3ccccc32)c(=O)cc1-c1ccccc1`, the pKi in test [1] was 6.88. Moreover, the Emax in test [3] came to 42%.
Regarding `CCCCCn1cc(C(=O)NC23CC4CC(CC(C4)C2)C3)c(=O)cc1-c1ccc(OC)cc1`, the pKi in test [1] was 6.42; in test [2] it was 7.04.
`CCCCCn1cc(C(=O)NC23CC4CC(CC(C4)C2)C3)c(=O)cc1C` showed a pKi in test [1] of less than 5.52. In addition, in test [3], the Emax stood at 148%.
On the same counts, the results for `CCCCCn1cc(C(=O)NC23CC4CC(CC(C4)C2)C3)c(=O)cc1C(C)(C)C` are less than 5.52 and 212%.
In test [1], `CCCCCn1cc(C(=O)NC23CC4CC(CC(C4)C2)C3)c(=O)cc1-c1ccccc1` showed a pKi of 6.23.
The same measure, in the same setting: then `CCn1cc(C(=O)NC(C)C23CC4CC(CC(C4)C2)C3)c(=O)cc1-c1ccccc1` (racemic), with less than 5.52.
`CCCCCn1cc(C(=O)NC23CC4CC(CC(C4)C2)C3)c(=S)cc1-c1ccccc1`: the pKi in test [1] is less than 6.00; in test [2] it was 7.73. The pEC50 in test [4] was 7.77. Moreover, the Emax in test [3] amounted to 30%.
As to `CCCCn1cc(C(=O)NC23CC4CC(CC(C4)C2)C3)c(=O)cc1-c1ccccc1`, the pKi in test [1] is less than 6.00.
With `CCCCCn1cc(NC(=O)OC(C)(C)C)c(=O)cc1-c1ccccc1`, the pKi in test [1] is less than 5.52; in test [2] it was 6.68. Moreover, the pEC50 in test [4] is 6.79. In addition, the Emax in test [3] worked out at 26%.
For the compound `Cc1c(C(=O)c2cccc3ccccc23)c2cccc3c2n1[C@H](CN1CCOCC1)CO3`, the Emax in test [3] was determined as 207%.
As for `CCCCCn1cc(NC(=O)C2CCCCC2)c(=O)cc1-c1ccccc1`, the figures for the pKi in test [1] and in test [2] were less than 5.52 and 7.29, respectively. Besides, the pEC50 in test [4] is 7.60. Also, the maximum response (Emax) in test [3] stood at 43%.
For `CCCCCCC(C)(C)c1ccc([C@@H]2C[C@H](O)CC[C@H]2CCCO)c(O)c1`, in test [3], the Emax came out at 230%.
For the compound `CCCCCn1cc(C(=O)NC23CC4CC(CC(C4)C2)C3)c(=O)cc1-c1cccc(Cl)c1`, the pKi was 7.29 in test [1] and 8.74 in test [2].
`CCCCCn1cc(C(=O)NC2CCCCC2)c(=O)cc1C(C)(C)C`: the pKi in test [1] is less than 5.52.
In test [1], `CCCCCn1cc(C(=O)NCC23CC4CC(CC(C4)C2)C3)c(=O)cc1-c1ccccc1` gave a pKi of 6.20.
For `CCCCCn1cc(C(=O)Nc2cccc(C(F)(F)F)c2)c(=O)cc1-c1ccc(Cl)cc1`, the pKi in test [1] and in test [2] was less than 6.00 each time. For the same compound, in test [4], the pEC50 was 6.80. The Emax in test [3] turned out to be 42%.
Compound `CCCCCn1cc(C(=O)NN2CCCCC2)c(=O)cc1-c1ccccc1` gave a pKi in test [1] of less than 5.52. Further, in test [3], the Emax amounted to 48%.
As to `CC(NC(=O)c1cn(-c2ccccc2)c(-c2ccccc2)cc1=O)C12CC3CC(CC(C3)C1)C2` (racemic), the pKi in test [1] and in test [2] was less than 5.52 each time.
In test [1], `CCCCCn1cc(C(=O)NC(C)C23CC4CC(CC(C4)C2)C3)c(=O)cc1-c1ccccc1` (racemic) gave a pKi of 6.43. In addition, the Emax in test [3] was found to be 46%.
Take `CCCC(C)(C)c1ccc2c(c1)OC(C)(C)[C@@H]1CC=C(O)C[C@@H]21`: the pKi in test [2] was 7.69. The pEC50 in test [4] is 6.84. Further, the Emax in test [3] worked out at 201%.
In turn, `CCCCCn1cc(C(=O)NC23CC4CC(CC(C4)C2)C3)c(=O)cc1-c1ccc(Cl)cc1` gave a pKi in test [1] of less than 6.00.
Turning to `CCCCCn1cc(C(=O)N[C@H]2CCCc3ccccc32)c(=O)cc1-c1ccccc1`, in test [1], the pKi was less than 6.00. Also, the Emax in test [3] turned out to be 48%.
Consider `CCCCCn1cc(C(=O)Nc2cccc(C(F)(F)F)c2)c(=O)cc1-c1ccccc1`, for which the pKi in test [1] is less than 5.52; in test [2], 7.59. Besides, the pEC50 in test [4] is 7.85. Further, the Emax in test [3] stood at 42%.

Values taken from ChEMBL document CHEMBL1641396, “4-Oxo-1,4-dihydropyridines as selective CB2 cannabinoid receptor ligands: structural insights into the design of a novel inverse agonist series” (J Med Chem, 2010).
